According to paper PMC3166973 (Journal of structural biology, 2011):

Tests used:
pcDHFR = pcDHFR (Pneumocystis carinii, UniProt P16184); type: biochemical; settings: read-out: Km NADPH
hDHFR = target: T1, hDHFR (Homo sapiens, UniProt P00374); assay: Standard DHFR assay, kinetic constants; type: biochemical; settings: read-out: Km NADPH; wild type hDHFR
T1 sequence (P00374 1-187): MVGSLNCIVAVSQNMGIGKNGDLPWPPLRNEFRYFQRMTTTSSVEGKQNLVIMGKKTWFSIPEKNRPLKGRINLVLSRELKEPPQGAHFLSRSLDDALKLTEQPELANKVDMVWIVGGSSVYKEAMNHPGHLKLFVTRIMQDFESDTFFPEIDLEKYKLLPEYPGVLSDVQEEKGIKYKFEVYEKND

hDHFR Q35S = target: T2, hDHFR Q35S (Homo sapiens, UniProt P00374, Q36S); assay: Standard DHFR assay, kinetic constants; type: biochemical; settings: read-out: Km NADPH
T2 sequence (P00374 1-187 Q36S): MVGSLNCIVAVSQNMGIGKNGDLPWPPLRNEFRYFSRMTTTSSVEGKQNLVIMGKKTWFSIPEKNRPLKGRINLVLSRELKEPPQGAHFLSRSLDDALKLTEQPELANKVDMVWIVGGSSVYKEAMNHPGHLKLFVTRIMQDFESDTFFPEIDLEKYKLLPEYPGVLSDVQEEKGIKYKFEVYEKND

hDHFR N64S = target: T3, hDHFR N64S (Homo sapiens, UniProt P00374, N65S); assay: Standard DHFR assay, kinetic constants; type: biochemical; settings: read-out: Km NADPH
T3 sequence (P00374 1-187 N65S): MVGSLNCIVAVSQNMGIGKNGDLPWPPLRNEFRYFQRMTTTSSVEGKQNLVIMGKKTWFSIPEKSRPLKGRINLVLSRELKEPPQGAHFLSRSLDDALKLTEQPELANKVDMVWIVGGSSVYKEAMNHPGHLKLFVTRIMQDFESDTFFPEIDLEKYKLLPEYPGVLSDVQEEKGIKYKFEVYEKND

hDHFR Q35S/N64S = target: T4, hDHFR Q35S/N64S (Homo sapiens, UniProt P00374, N65S/Q36S); assay: Standard DHFR assay, kinetic constants; type: biochemical; settings: read-out: Km NADPH
T4 sequence (P00374 1-187 Q36S/N65S): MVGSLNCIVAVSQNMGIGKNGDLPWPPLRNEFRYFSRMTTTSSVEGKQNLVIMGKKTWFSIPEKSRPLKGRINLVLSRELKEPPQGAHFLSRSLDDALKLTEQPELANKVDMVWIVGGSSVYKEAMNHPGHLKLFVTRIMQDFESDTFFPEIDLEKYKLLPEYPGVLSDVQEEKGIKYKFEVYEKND

hDHFR Q35K = target: T5, hDHFR Q35K (Homo sapiens, UniProt P00374, Q36K); assay: Standard DHFR assay, kinetic constants; type: biochemical; settings: read-out: Km NADPH
T5 sequence (P00374 1-187 Q36K): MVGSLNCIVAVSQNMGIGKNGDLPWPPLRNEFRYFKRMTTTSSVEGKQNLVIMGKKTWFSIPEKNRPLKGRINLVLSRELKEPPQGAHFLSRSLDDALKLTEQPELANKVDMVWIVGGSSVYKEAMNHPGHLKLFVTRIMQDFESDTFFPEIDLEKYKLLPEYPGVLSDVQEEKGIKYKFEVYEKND

hDHFR N64F = target: T6, hDHFR N64F (Homo sapiens, UniProt P00374, N65F); assay: Standard DHFR assay, kinetic constants; type: biochemical; settings: read-out: Km NADPH
T6 sequence (P00374 1-187 N65F): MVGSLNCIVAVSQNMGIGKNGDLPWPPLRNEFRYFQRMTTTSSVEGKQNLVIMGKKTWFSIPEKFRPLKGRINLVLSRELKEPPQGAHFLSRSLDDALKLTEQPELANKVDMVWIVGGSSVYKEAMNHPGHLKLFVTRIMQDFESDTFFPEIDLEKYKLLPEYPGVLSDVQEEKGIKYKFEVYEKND

hDHFR Q35K/N64F = target: T7, hDHFR Q35K/N64F (Homo sapiens, UniProt P00374, N65F/Q36K); assay: Standard DHFR assay, kinetic constants; type: biochemical; settings: read-out: Km NADPH
T7 sequence (P00374 1-187 Q36K/N65F): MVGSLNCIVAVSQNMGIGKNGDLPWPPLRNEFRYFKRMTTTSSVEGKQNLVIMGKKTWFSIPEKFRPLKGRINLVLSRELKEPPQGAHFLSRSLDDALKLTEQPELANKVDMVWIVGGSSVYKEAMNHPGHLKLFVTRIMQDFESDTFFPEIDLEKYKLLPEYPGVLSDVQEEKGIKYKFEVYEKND

hDHFR Q35K/N64S = target: T8, hDHFR Q35K/N64S (Homo sapiens, UniProt P00374, N65S/Q36K); assay: Standard DHFR assay, kinetic constants; type: biochemical; settings: read-out: Km NADPH
T8 sequence (P00374 1-187 Q36K/N65S): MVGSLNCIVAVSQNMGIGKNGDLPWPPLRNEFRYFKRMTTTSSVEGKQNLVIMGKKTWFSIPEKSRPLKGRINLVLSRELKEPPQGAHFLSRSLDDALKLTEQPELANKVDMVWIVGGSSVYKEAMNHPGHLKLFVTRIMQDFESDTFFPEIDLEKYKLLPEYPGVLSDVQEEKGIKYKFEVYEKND

hDHFR Q35S/N64F = target: T9, hDHFR Q35S/N64F (Homo sapiens, UniProt P00374, N65F/Q36S); assay: Standard DHFR assay, kinetic constants; type: biochemical; settings: read-out: Km NADPH
T9 sequence (P00374 1-187 Q36S/N65F): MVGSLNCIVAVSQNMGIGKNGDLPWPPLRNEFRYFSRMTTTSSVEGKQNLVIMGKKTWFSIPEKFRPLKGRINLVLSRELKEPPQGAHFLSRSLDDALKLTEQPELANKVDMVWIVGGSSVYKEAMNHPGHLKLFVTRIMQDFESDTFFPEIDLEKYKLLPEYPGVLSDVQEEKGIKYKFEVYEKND

pjDHFR = target: T10, pjDHFR (Pneumocystis jirovecii, UniProt Q9UUP5); assay: Standard DHFR assay; settings: read-out: Km NADPH, substrate at saturating concentration
T10 sequence (Q9UUP5 1-206): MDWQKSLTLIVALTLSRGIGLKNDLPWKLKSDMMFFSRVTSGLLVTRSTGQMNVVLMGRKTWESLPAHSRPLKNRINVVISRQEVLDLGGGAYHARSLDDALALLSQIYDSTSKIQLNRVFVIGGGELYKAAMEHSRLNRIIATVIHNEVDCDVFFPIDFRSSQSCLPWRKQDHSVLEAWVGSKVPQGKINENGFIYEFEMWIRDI

[1] = substrate: Nc1nc2c(c(=O)[nH]1)N=C(CNc1ccc(C(=O)N[C@@H](CCC(=O)O)C(=O)O)cc1)CN2; assay: purified protein, by the assay type; settings: pH 7.4

Sequence of pcDHFR (P16184 whole entry): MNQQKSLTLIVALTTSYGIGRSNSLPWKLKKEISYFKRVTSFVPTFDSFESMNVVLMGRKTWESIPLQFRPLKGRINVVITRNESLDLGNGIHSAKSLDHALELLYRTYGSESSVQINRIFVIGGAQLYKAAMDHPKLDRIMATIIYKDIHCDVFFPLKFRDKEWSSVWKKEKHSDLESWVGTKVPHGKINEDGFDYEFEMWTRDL

**Q.** Which results are given for NC(=O)C1=CN([C@@H]2O[C@H](COP(=O)(O)OP(=O)(O)OC[C@H]3O[C@@H](n4cnc5c(N)ncnc54)[C@H](OP(=O)(O)O)[C@@H]3O)[C@@H](O)[C@H]2O)C=CC1 [NADPH]?
**A.** Km (pcDHFR): 16 ± 2 µM; Km (hDHFR): 4.5 ± 1.2 µM; Km (hDHFR Q35S): 3.8 ± 1.4 µM; Km (hDHFR N64S): 6.3 µM; Km (hDHFR Q35S/N64S): 5.3 ± 1.5 µM; Km (hDHFR Q35K): 12.5 µM; Km (hDHFR N64F): 7.5 ± 3.1 µM; Km (hDHFR Q35K/N64F): 5.7 ± 1.1 µM; Km (hDHFR Q35K/N64S): 6.6 ± 1.8 µM; Km (hDHFR Q35S/N64F): 5.6 ± 0.5 µM; Km (pjDHFR): 19 ± 1 µM

B1: pjDHFR (Pneumocystis jirovecii) (protein)
chain: MDWQKSLTLIVALTLSRGIGLKNDLPWKLKSDMMFFSRVTSGLLVTRSTGQMNVVLMGRKTWESLPAHSRPLKNRINVVISRQEVLDLGGGAYHARSLDDALALLSQIYDSTSKIQLNRVFVIGGGELYKAAMEHSRLNRIIATVIHNEVDCDVFFPIDFRSSQSCLPWRKQDHSVLEAWVGSKVPQGKINENGFIYEFEMWIRDI
**Q.** B1 was tested. Which Km ([1]; other: pjDHFR, cofactor at saturating concentration) did it give?
**A.** Its Km is 2.2 ± 0.2^1 (n=13) μM.

B2: hDHFR Q35K/N64S (Homo sapiens; N65S/Q36K) (protein)
chain: MVGSLNCIVAVSQNMGIGKNGDLPWPPLRNEFRYFKRMTTTSSVEGKQNLVIMGKKTWFSIPEKSRPLKGRINLVLSRELKEPPQGAHFLSRSLDDALKLTEQPELANKVDMVWIVGGSSVYKEAMNHPGHLKLFVTRIMQDFESDTFFPEIDLEKYKLLPEYPGVLSDVQEEKGIKYKFEVYEKND
**Q.** B2 was tested. Which Km ([1]; other: hDHFR Q35K/N64S, 37.0 °C) did it give?
**A.** Its Km is 0.7 ± 0.2 (n=6) μM.

B3: hDHFR Q35S (Homo sapiens; Q36S) (protein)
chain: MVGSLNCIVAVSQNMGIGKNGDLPWPPLRNEFRYFSRMTTTSSVEGKQNLVIMGKKTWFSIPEKNRPLKGRINLVLSRELKEPPQGAHFLSRSLDDALKLTEQPELANKVDMVWIVGGSSVYKEAMNHPGHLKLFVTRIMQDFESDTFFPEIDLEKYKLLPEYPGVLSDVQEEKGIKYKFEVYEKND
**Q.** B3 was tested. Which Km ([1]; other: hDHFR Q35S, 37.0 °C) did it give?
**A.** The Km was 0.7 ± 0.2 (n=4) μM.

B4: hDHFR (Homo sapiens) (protein)
chain: MVGSLNCIVAVSQNMGIGKNGDLPWPPLRNEFRYFQRMTTTSSVEGKQNLVIMGKKTWFSIPEKNRPLKGRINLVLSRELKEPPQGAHFLSRSLDDALKLTEQPELANKVDMVWIVGGSSVYKEAMNHPGHLKLFVTRIMQDFESDTFFPEIDLEKYKLLPEYPGVLSDVQEEKGIKYKFEVYEKND
**Q.** With B4 as the molecule, how does the Km ([1]; other: wild type hDHFR, 37.0 °C) read?
**A.** Its Km is 0.7 ± 0.1 (n=8) μM.

B5: hDHFR N64S (Homo sapiens; N65S) (protein)
chain: MVGSLNCIVAVSQNMGIGKNGDLPWPPLRNEFRYFQRMTTTSSVEGKQNLVIMGKKTWFSIPEKSRPLKGRINLVLSRELKEPPQGAHFLSRSLDDALKLTEQPELANKVDMVWIVGGSSVYKEAMNHPGHLKLFVTRIMQDFESDTFFPEIDLEKYKLLPEYPGVLSDVQEEKGIKYKFEVYEKND
**Q.** For B5, which Km ([1]; other: hDHFR N64S, 37.0 °C) is on record?
**A.** Its Km is 0.9 ± 0.3 (n=3) μM.

B6: hDHFR Q35S/N64F (Homo sapiens; N65F/Q36S) (protein)
chain: MVGSLNCIVAVSQNMGIGKNGDLPWPPLRNEFRYFSRMTTTSSVEGKQNLVIMGKKTWFSIPEKFRPLKGRINLVLSRELKEPPQGAHFLSRSLDDALKLTEQPELANKVDMVWIVGGSSVYKEAMNHPGHLKLFVTRIMQDFESDTFFPEIDLEKYKLLPEYPGVLSDVQEEKGIKYKFEVYEKND
**Q.** With B6 as the molecule, how does the Km ([1]; other: hDHFR Q35S/N64F, 37.0 °C) read?
**A.** The Km was 0.7 ± 0.2 (n=5) μM.
